Experimental data: PubChem BioAssay (NCI)
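Five concentrations, 48 hours, 96-well plates. GI50 is the concentration that inhibits growth by half. TGI: total growth inhibition.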

What was measured:
Experiment in all cases: DTP human tumour cell line panel, 48 h
COLO 205 colon = tested on: COLO 205 colon
SF-295 CNS = tested on: SF-295 CNS
IGROV1 ovarian = tested on: IGROV1 ovarian
RXF 393 renal = tested on: RXF 393 renal
HCT-15 colon = tested on: HCT-15 colon
SK-MEL-2 melanoma = tested on: SK-MEL-2 melanoma
CCRF-CEM leukemia = tested on: CCRF-CEM leukemia
SK-OV-3 ovarian = tested on: SK-OV-3 ovarian
A549 NSCLC = tested on: A549 NSCLC
HCC-2998 colon = tested on: HCC-2998 colon
U251 CNS = tested on: U251 CNS
HT29 colon = tested on: HT29 colon
RPMI-8226 leukemia = tested on: RPMI-8226 leukemia
SW-620 colon = tested on: SW-620 colon
PC-3 prostate = tested on: PC-3 prostate
CAKI-1 renal = tested on: CAKI-1 renal
OVCAR-4 ovarian = tested on: OVCAR-4 ovarian
SN12C renal = tested on: SN12C renal
SK-MEL-28 melanoma = tested on: SK-MEL-28 melanoma
ACHN renal = tested on: ACHN renal
HL-60(TB) leukemia = tested on: HL-60(TB) leukemia
MALME-3M melanoma = tested on: MALME-3M melanoma
SNB-75 CNS = tested on: SNB-75 CNS
UACC-257 melanoma = tested on: UACC-257 melanoma
HOP-62 NSCLC = tested on: HOP-62 NSCLC
KM12 colon = tested on: KM12 colon
BT-549 breast = tested on: BT-549 breast
DU-145 prostate = tested on: DU-145 prostate
786-0 renal = tested on: 786-0 renal
MDA-MB-435 = tested on: MDA-MB-435
SF-268 CNS = tested on: SF-268 CNS
M14 melanoma = tested on: M14 melanoma
SNB-19 CNS = tested on: SNB-19 CNS
UO-31 renal = tested on: UO-31 renal
K-562 leukemia = tested on: K-562 leukemia
UACC-62 melanoma = tested on: UACC-62 melanoma
HOP-92 NSCLC = tested on: HOP-92 NSCLC
OVCAR-8 ovarian = tested on: OVCAR-8 ovarian
HS 578T breast = tested on: HS 578T breast
NCI-H226 lung = tested on: NCI-H226 lung
A498 renal = tested on: A498 renal
NCI-H23 lung = tested on: NCI-H23 lung
LOX IMVI melanoma = tested on: LOX IMVI melanoma
SK-MEL-5 melanoma = tested on: SK-MEL-5 melanoma
MCF7 breast = tested on: MCF7 breast
NCI-H522 lung = tested on: NCI-H522 lung
T-47D breast = tested on: T-47D breast
OVCAR-5 ovarian = tested on: OVCAR-5 ovarian
MDA-MB-231 breast = tested on: MDA-MB-231 breast
NCI-H460 lung = tested on: NCI-H460 lung
EKVX NSCLC = tested on: EKVX NSCLC
HCT-116 colon = tested on: HCT-116 colon
SF-539 CNS = tested on: SF-539 CNS
TK-10 renal = tested on: TK-10 renal
MOLT-4 leukemia = tested on: MOLT-4 leukemia
SR leukemia = tested on: SR leukemia
OVCAR-3 ovarian = tested on: OVCAR-3 ovarian
NCI/ADR-RES ovarian = tested on: NCI/ADR-RES ovarian

## CC1=C2[C@@H](CC1)[C@]1(C)O[C@@](C(C)C)(C[C@H]1OC(=O)CO)[C@H]2OC(=O)CCCc1ccccc1
COLO 205 colon
  GI50: 6.52 µM
  TGI: 21.8 µM
SF-295 CNS
  GI50: 12.5 µM
  TGI: 24.9 µM
IGROV1 ovarian
  GI50: 3.71 µM
  TGI: 14.1 µM
RXF 393 renal
  GI50: 11.9 µM
  TGI: 25.6 µM
HCT-15 colon
  GI50: 9.02 µM
  TGI: 22.2 µM
SK-MEL-2 melanoma
  GI50: 11.7 µM
  TGI: 27.2 µM
CCRF-CEM leukemia
  GI50: 4.65 µM
  TGI: 34.7 µM
SK-OV-3 ovarian
  GI50: 16.6 µM
  TGI: 30.6 µM
A549 NSCLC
  GI50: 6.96 µM
  TGI: 41.5 µM
HCC-2998 colon
  GI50: 12 µM
  TGI: 24.6 µM
U251 CNS
  GI50: 5.61 µM
  TGI: 20.9 µM
HT29 colon
  GI50: 10.8 µM
  TGI: 26.1 µM
RPMI-8226 leukemia
  GI50: 3.08 µM
  TGI: > 100 µM
SW-620 colon
  GI50: 11 µM
  TGI: 25.4 µM
PC-3 prostate
  GI50: 3.63 µM
  TGI: 16.1 µM
CAKI-1 renal
  GI50: 4.24 µM
  TGI: 16.7 µM
OVCAR-4 ovarian
  GI50: 11.9 µM
  TGI: 29.1 µM
SN12C renal
  GI50: 4.52 µM
  TGI: 18 µM
SK-MEL-28 melanoma
  GI50: 13.9 µM
  TGI: 26.8 µM
ACHN renal
  GI50: 7.02 µM
  TGI: 19.3 µM
HL-60(TB) leukemia
  GI50: 2.21 µM
  TGI: 5.27 µM
MALME-3M melanoma
  GI50: 6.52 µM
  TGI: 19.8 µM
SNB-75 CNS
  GI50: 2.08 µM
  TGI: 18.5 µM
UACC-257 melanoma
  GI50: 13.1 µM
  TGI: 27.2 µM
HOP-62 NSCLC
  GI50: 13.4 µM
  TGI: 26.8 µM
KM12 colon
  GI50: 5.97 µM
  TGI: 20.1 µM
BT-549 breast
  GI50: 4.44 µM
  TGI: 15.7 µM
DU-145 prostate
  GI50: 8.82 µM
  TGI: 20.9 µM
786-0 renal
  GI50: 13.1 µM
  TGI: 28.7 µM
MDA-MB-435
  GI50: 13.1 µM
  TGI: 26.2 µM
SF-268 CNS
  GI50: 11.5 µM
  TGI: 32.6 µM
M14 melanoma
  GI50: 7.78 µM
  TGI: 21.8 µM
SNB-19 CNS
  GI50: 12.4 µM
  TGI: 24.9 µM
UO-31 renal
  GI50: 3.36 µM
  TGI: 14.7 µM
K-562 leukemia
  GI50: 5.88 µM
  TGI: 44.7 µM
UACC-62 melanoma
  GI50: 3.42 µM
  TGI: 13.2 µM
HOP-92 NSCLC
  GI50: 3.86 µM
  TGI: 18 µM
OVCAR-8 ovarian
  GI50: 4.58 µM
  TGI: 26.8 µM
HS 578T breast
  GI50: 2.43 µM
  TGI: 9.23 µM
NCI-H226 lung
  GI50: 6.04 µM
  TGI: 22.9 µM
A498 renal
  GI50: 6.4 µM
  TGI: 19.6 µM
NCI-H23 lung
  GI50: 11.3 µM
  TGI: 27.6 µM
LOX IMVI melanoma
  GI50: 5.88 µM
  TGI: 18.5 µM
SK-MEL-5 melanoma
  GI50: 7.91 µM
  TGI: 20.3 µM
MCF7 breast
  GI50: 13.2 µM
  TGI: 29.7 µM
NCI-H522 lung
  GI50: 7.51 µM
  TGI: 24.6 µM
T-47D breast
  GI50: 2.54 µM
  TGI: 12.3 µM
OVCAR-5 ovarian
  GI50: 15.7 µM
  TGI: 30 µM
MDA-MB-231 breast
  GI50: 12.9 µM
  TGI: 31.8 µM
NCI-H460 lung
  GI50: 9.1 µM
  TGI: 22.9 µM
EKVX NSCLC
  GI50: 15 µM
  TGI: 30.8 µM
HCT-116 colon
  GI50: 3.54 µM
  TGI: 13.9 µM
SF-539 CNS
  GI50: 14.2 µM
  TGI: 27.5 µM
TK-10 renal
  GI50: 18.6 µM
  TGI: 32.8 µM
MOLT-4 leukemia
  GI50: 3.66 µM
  TGI: 15.2 µM
SR leukemia
  GI50: 11.3 µM
  TGI: 36.6 µM
OVCAR-3 ovarian
  GI50: 6.94 µM
  TGI: 22.5 µM
NCI/ADR-RES ovarian
  GI50: 3.87 µM
  TGI: 20 µM

## COc1cc2c3c(n(CCCn4cncn4)c(=O)c2cc1OC)-c1cc2c(cc1C3=O)OCO2
COLO 205 colon
  GI50: > 100 µM
  TGI: > 100 µM
SF-295 CNS
  GI50: < 0.01 µM
  TGI: > 100 µM
IGROV1 ovarian
  GI50: 10.9 µM
  TGI: > 100 µM
RXF 393 renal
  GI50: 11.9 µM
  TGI: > 100 µM
HCT-15 colon
  GI50: > 100 µM
  TGI: > 100 µM
SK-MEL-2 melanoma
  GI50: > 100 µM
  TGI: > 100 µM
CCRF-CEM leukemia
  GI50: < 0.01 µM
  TGI: 3.5 µM
A549 NSCLC
  GI50: 16.3 µM
  TGI: > 100 µM
HCC-2998 colon
  GI50: 16.6 µM
  TGI: > 100 µM
U251 CNS
  GI50: < 0.0449 µM
  TGI: 31.8 µM
HT29 colon
  GI50: > 73.1 µM
  TGI: > 100 µM
RPMI-8226 leukemia
  GI50: < 0.0194 µM
  TGI: 12.3 µM
SW-620 colon
  GI50: 1.08 µM
  TGI: > 100 µM
PC-3 prostate
  GI50: 39.8 µM
  TGI: > 100 µM
CAKI-1 renal
  TGI: > 100 µM
OVCAR-4 ovarian
  GI50: > 100 µM
  TGI: > 100 µM
SN12C renal
  TGI: > 100 µM
SK-MEL-28 melanoma
  GI50: > 100 µM
  TGI: > 100 µM
ACHN renal
  GI50: < 0.01 µM
  TGI: 2.56 µM
HL-60(TB) leukemia
  GI50: < 0.0131 µM
  TGI: 1.16 µM
MALME-3M melanoma
  GI50: 1.36 µM
  TGI: > 48.1 µM
SNB-75 CNS
  GI50: 0.799 µM
  TGI: 99.1 µM
UACC-257 melanoma
  GI50: > 100 µM
  TGI: > 100 µM
HOP-62 NSCLC
  GI50: < 0.0283 µM
  TGI: 59 µM
KM12 colon
  GI50: > 100 µM
  TGI: > 100 µM
BT-549 breast
  GI50: 31.1 µM
  TGI: > 100 µM
DU-145 prostate
  GI50: < 0.0293 µM
  TGI: > 34.7 µM
786-0 renal
  TGI: > 49.3 µM
MDA-MB-435
  GI50: > 100 µM
  TGI: > 100 µM
SF-268 CNS
  GI50: 99 µM
  TGI: > 100 µM
M14 melanoma
  GI50: < 0.01 µM
  TGI: > 100 µM
SNB-19 CNS
  TGI: > 100 µM
UO-31 renal
  GI50: 0.0913 µM
  TGI: > 100 µM
K-562 leukemia
  GI50: 1.49 µM
  TGI: 28.1 µM
UACC-62 melanoma
  GI50: < 0.01 µM
HOP-92 NSCLC
  GI50: 0.935 µM
  TGI: 38.6 µM
OVCAR-8 ovarian
  TGI: > 100 µM
HS 578T breast
  GI50: > 73.6 µM
  TGI: > 100 µM
NCI-H226 lung
  TGI: > 100 µM
A498 renal
  GI50: 16.8 µM
  TGI: > 100 µM
NCI-H23 lung
  GI50: 0.0906 µM
  TGI: 57.5 µM
LOX IMVI melanoma
  GI50: 0.0572 µM
  TGI: > 49.3 µM
SK-MEL-5 melanoma
  GI50: 0.671 µM
  TGI: 31 µM
MCF7 breast
  TGI: > 100 µM
NCI-H522 lung
  TGI: > 100 µM
T-47D breast
  TGI: > 100 µM
OVCAR-5 ovarian
  GI50: > 100 µM
  TGI: > 100 µM
MDA-MB-231 breast
  GI50: 80.9 µM
  TGI: > 100 µM
NCI-H460 lung
  GI50: < 0.01 µM
  TGI: > 100 µM
EKVX NSCLC
  GI50: > 84.1 µM
  TGI: > 100 µM
HCT-116 colon
  GI50: 0.567 µM
  TGI: > 100 µM
SF-539 CNS
  TGI: 19.6 µM
TK-10 renal
  GI50: 35.2 µM
  TGI: > 88.1 µM
MOLT-4 leukemia
  GI50: < 0.01 µM
  TGI: 0.242 µM
SR leukemia
  GI50: < 0.01 µM
OVCAR-3 ovarian
  GI50: 31.9 µM
  TGI: > 100 µM
NCI/ADR-RES ovarian
  GI50: 1.55 µM
  TGI: > 100 µM
